From patent US9771351B2, “Wnt signaling inhibitor” (KYOWA HAKKO KIRIN CO., LTD., priority 2013, dated 2017)
Like-named read-outs stand apart in the source and are kept apart here.

Experiments:
[1] = tested on: T-cell factor (TCF)-luciferase reporter using Wnt pathway as index; assay: Inhibitory activity against TCF-luciferase reporter using Wnt pathway as index (DLD-1/TCF-Luc cells); type: cell-based, human; conditions: Homo sapiens, read-out: Inhibition ratio (%) at 1 μmol/L
Experimental: Test Example 1: Inhibitory Activity Against T-Cell Factor (TCF)-Luciferase Reporter Using Wnt Pathway as Index
The inhibitory activity of test compounds against Wnt pathway was evaluated by the following method.
A human colorectal adenocarcinoma cell line DLD-1 (Japanese Collection of Research Bioresources) was cultured in RPMI-1640 medium (Gibco/Life Technologies, Inc.) containing 10% fetal bovine serum (Gibco/Life Technologies, Inc.), 10 mmol/L of a 4-(2-hydroxyethyl)-1-piperazineethanesulfonic acid (HEPES) buffer solution (Gibco/Life Technologies, Inc.), 1 mmol/L of a sodium pyruvate solution (Gibco/Life Technologies, Inc.), 4.5 g/L of a D-(+)-glucose solution (Sigma-Aldrich, Inc.), 100 units/mL penicillin (Gibco/Life Technologies, Inc.) and 100 μg/mL of streptomycin (Gibco/Life Technologies, Inc.) under the conditions of 37° C. and 5% carbon dioxide gas. The DLD-1 cells were seeded in a 10 cm dish, and 20 μg of a luciferase gene plasmid pGL4.27 having a TCF responsive sequence inserted therein was transfected into the cells using 10 μL of Attractene (Qiagen, Inc.) according to the protocol attached to the product. A stably expressing cell line (DLD-1/TCF-Luc) was selected using […] of hygromycin B (Wako Pure Chemical Industries Ltd.). The DLD-1/TCF-Luc cells were detached with trypsin and seeded in a 384-well plate, and a test compound was added at different concentrations. After 18 hours, the luciferase activity was measured using Steady-Glo™ Luciferase Assay System (Promega, Inc.).
The inhibition ratio was obtained according to the following formula 1. The inhibition ratio (%) of the compound of the present invention at 1 μmol/L against the TCF-luciferase reporter using the Wnt pathway as an index is shown in Table 6. [Math. 1] Inhibition ratio (%)=100−{(luciferase activity when test compound was added)−(luciferase activity of blank)}/{(luciferase activity of control)−(luciferase activity of blank)}×100 Formula 1

tankyrase-2 = molecular target: T1, tankyrase-2 (Homo sapiens, UniProt Q9H2K2); assay: Tankyrase-2 enzyme inhibition test (Tankyrase-2 Chemiluminescent Assay Kit); type: biochemical; conditions: autoribosylation of GST-tankyrase-2 fusion protein, chemiluminescence
T1 construct: purchased BPS Bioscience, Inc. 80566
T1 sequence (Q9H2K2 1-1166): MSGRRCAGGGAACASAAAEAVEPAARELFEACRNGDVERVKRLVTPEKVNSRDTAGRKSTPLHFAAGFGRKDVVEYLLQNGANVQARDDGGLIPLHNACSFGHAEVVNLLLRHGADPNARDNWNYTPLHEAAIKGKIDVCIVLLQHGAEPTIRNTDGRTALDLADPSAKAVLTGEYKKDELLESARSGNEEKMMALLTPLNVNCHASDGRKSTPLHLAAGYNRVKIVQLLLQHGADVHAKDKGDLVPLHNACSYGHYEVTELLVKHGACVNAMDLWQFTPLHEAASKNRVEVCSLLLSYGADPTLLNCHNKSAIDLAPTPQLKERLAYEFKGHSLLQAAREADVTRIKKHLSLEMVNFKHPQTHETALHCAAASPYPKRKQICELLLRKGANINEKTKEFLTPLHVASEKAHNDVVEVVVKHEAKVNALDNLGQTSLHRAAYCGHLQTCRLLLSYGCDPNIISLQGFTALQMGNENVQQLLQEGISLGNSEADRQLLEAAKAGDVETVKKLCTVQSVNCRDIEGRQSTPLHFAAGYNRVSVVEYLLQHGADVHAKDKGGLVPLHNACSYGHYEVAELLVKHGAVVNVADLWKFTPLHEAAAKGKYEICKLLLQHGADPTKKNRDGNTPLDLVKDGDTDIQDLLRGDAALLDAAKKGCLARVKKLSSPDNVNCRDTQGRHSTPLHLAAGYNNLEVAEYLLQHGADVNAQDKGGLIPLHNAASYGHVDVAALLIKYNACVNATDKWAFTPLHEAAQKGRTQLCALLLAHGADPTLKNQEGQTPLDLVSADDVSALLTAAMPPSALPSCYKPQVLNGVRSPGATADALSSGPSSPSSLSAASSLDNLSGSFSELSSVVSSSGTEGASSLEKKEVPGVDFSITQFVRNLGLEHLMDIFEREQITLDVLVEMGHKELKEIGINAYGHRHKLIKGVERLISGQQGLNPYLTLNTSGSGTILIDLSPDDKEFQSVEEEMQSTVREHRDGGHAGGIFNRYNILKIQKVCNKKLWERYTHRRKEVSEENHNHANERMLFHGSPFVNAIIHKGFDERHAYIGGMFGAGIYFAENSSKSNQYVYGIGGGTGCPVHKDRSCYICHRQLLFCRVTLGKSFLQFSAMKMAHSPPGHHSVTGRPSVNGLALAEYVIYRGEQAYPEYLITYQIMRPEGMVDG
Experimental: Test Example 2: Tankyrase-2 Enzyme Inhibition Test
The enzyme activity of tankyrase-2 was evaluated using Tankyrase-2 Chemiluminescent Assay Kit (BPS Bioscience, Inc., Catalog No. 80566). The Tankyrase-2 Chemiluminescent Assay Kit is a kit for evaluating the enzyme activity of tankyrase-2 using autoribosylation of glutathione-S-transferase (GST)-tankyrase-2 fusion protein as an index. All the experimental materials except for PBS (PBST) buffer containing phosphate-buffered saline (PBS) and 0.05% Tween 20 are all included in the kit. The GST-tankyrase-2 enzyme diluted with 50 μL of 1× tankyrase buffer was added to the wells of a 96-well plate coated with glutathione. After the plate was left to stand overnight at 4° C., the plate was washed 3 times with the PBST buffer. 150 μL of blocking buffer was added thereto, and the plate was left to stand at room temperature for 30 minutes to block the wells. The plate was washed 3 times with the PBST buffer. Before the ribosylation reaction, an assay mixture containing a biotinylated substrate and a test compound diluted with 1× tankyrase buffer were mixed, whereby a reaction mixture was prepared. In order to start the ribosylation reaction, 50 μL of the reaction mixture was added to the wells. In a blank well, 1× tankyrase buffer was added in place of the reaction mixture containing a biotinylated substrate. The plate was left to stand at 30° C. for 1 hour. After the reaction, the plate was washed 3 times with the PBST buffer. Streptavidin-horseradish peroxidase (HRP) was diluted to 50-fold with the blocking buffer. The diluted streptavidin-HRP was added to the wells, and the plate was left to stand at room temperature for 30 minutes. The plate was washed 3 times with the PBST buffer. Immediately before use, 50 μL of the HRP chemiluminescent substrate A and 50 μL of the HRP chemiluminescent substrate B were mixed and 100 μL of the resulting mixture was added to the wells. The chemiluminescence was measured using a chemiluminescence measuring apparatus. The inhibition ratio was obtained according to the following formula 2. [Math. 2] Inhibition ratio (%)=100−{(chemiluminescence intensity when test compound was added)−(chemiluminescence intensity of blank)}/{(chemiluminescence intensity of control)−(chemiluminescence intensity of blank)}×100 Formula 2

[2] = 1 μmol/L, DLD-1/TCF-Luc cells, luciferase activity after 18 hours

Row | Compound | inhibition at 1 µM ([1]; DLD-1, 18 h) [%] | Inhibition ratio (%) at 1 μmol/L (tankyrase-2) [%] | inhibition at 1 µM [1, 2] [%]
1 | N#Cc1cc(N2C(=O)N(CC3CCN(c4ncnc5c4NC(=O)CO5)CC3)Cc3ccccc32)ccn1 [Compound 35, 4-(2-Oxo-3-{[1-(6-oxo-6,7-dihydro-5H-pyrimido[4,5-b][1,4]oxazin-4-yl)piperidin-4-yl]methyl}-3,4-dihydroquinazolin-1(2H)-yl)picolinonitrile] | 79 | 88 | –
2 | COc1cc2ncnc(N3CCC(CN4Cc5ccccc5N(CC5CCCO5)C4=O)CC3)c2cc1OC (centres unmarked) [Compound 2, 3-{[1-(6,7-Dimethoxyquinazolin-4-yl)piperidin-4-yl]methyl}-1-[(tetrahydrofuran-2-yl)methyl]-3,4-dihydroquinazolin-2(1H)-one] | – | 91 | 87
3 | COc1cc2ncnc(N3CCC(CN4Cc5ccccc5N(c5cccc([N+](=O)[O-])c5)C4=O)CC3)c2cc1OC [Compound 8, 3-{[1-(6,7-Dimethoxyquinazolin-4-yl)piperidin-4-yl]methyl}-1-(3-nitrophenyl)-3,4-dihydroquinazolin-2(1H)-one] | 73 | 90 | –
4 | COc1cc2ncnc(N3CCC(CN4Cc5ccccc5N(Cc5ccccc5C(N)=O)C4=O)CC3)c2cc1OC [Compound 1, 2-[(3-{[1-(6,7-Dimethoxyquinazolin-4-yl)piperidin-4-yl]methyl}-2-oxo-3,4-dihydroquinazolin-1(2H)-yl)methyl]benzamide] | – | 91 | 88
5 | N#Cc1cc(N2C(=O)N(CC3CCN(c4nccc5nc[nH]c(=O)c45)CC3)Cc3cccnc32)ccc1F [Compound 47, 2-Fluoro-5-(2-oxo-3-{[1-(4-oxo-3,4-dihydropyrido[4,3-d]pyrimidin-5-yl)piperidin-4-yl]methyl}-3,4-dihydropyrido[2,3-d]pyrimidin-1(2H)-yl)benzonitrile] | – | 80 | 82
6 | CC(=O)N1CCc2ncnc(N3CCC(CN4Cc5ccccc5N(c5ccc(F)c(C#N)c5)C4=O)CC3)c2C1 [Compound 44, 5-(3-{[1-(6-Acetyl-5,6,7,8-tetrahydropyrido[4,3-d]pyrimidin-4-yl)piperidin-4-yl]methyl}-2-oxo-3,4-dihydroquinazolin-1(2H)-yl)-2-fluorobenzonitrile] | 82 | 93 | –
7 | CC(=O)Nc1ccc2ncnc(N3CCC(CN4Cc5cccnc5N(c5ccnc(C#N)c5)C4=O)CC3)c2c1 [Compound 50, N-[4-(4-{[1-(2-Cyanopyridin-4-yl)-2-oxo-1,2-dihydropyrido[2,3-d]pyrimidin-3(4H)-yl]methyl}piperidin-1-yl)quinazolin-6-yl]acetamide] | – | 82 | 87
8 | COc1cc2ncnc(N3CCC(O)(CN4Cc5ccccc5N(c5ccnc(C#N)c5)C4=O)CC3)c2cc1OC [Compound 18, 4-(3-{[1-(6,7-Dimethoxyquinazolin-4-yl)-4-hydroxypiperidin-4-yl]methyl}-2-oxo-3,4-dihydroquinazolin-1(2H)-yl)picolinonitrile] | – | 79 | 80
9 | N#Cc1cc(N2C(=O)N(CC3CCN(c4nccc5nc[nH]c(=O)c45)CC3)Cc3ccccc32)ccn1 [Compound 34, 4-(2-Oxo-3-{[1-(4-oxo-3,4-dihydropyrido[4,3-d]pyrimidin-5-yl)piperidin-4-yl]methyl}-3,4-dihydroquinazolin-1(2H)-yl)picolinonitrile] | 78 | 87 | –
10 | N#Cc1cc(N2C(=O)N(CC3CCN(c4c(C(N)=O)ccnc4F)CC3)Cc3ccccc32)ccn1 [Compound 40, 3-(4-{[1-(2-Cyanopyridin-4-yl)-2-oxo-1,2-dihydroquinazolin-3(4H)-yl]methyl}piperidin-1-yl)-2-fluoroisonicotinamide] | 78 | 93 | –
